In assay [1] the test system is subclones of RKO colon adenocarcinoma cells (RKOp27 or RKOp21) arrested by Ponasterone A. In words: Alamar Blue cell viability assay, cell cycle specific mode of action: cells arrested by ectopic p27Kip1 induced by Ponasterone A versus proliferating cells. The assay is classed as cell-based. The note with it: Homo sapiens, RKO p27 induced (arrested) cells, 10 μM Ponasterone A, 72 hours, value = class bound given in Table A, read-out: −logIC50 RKO p27 induced (arrested) (converted). Summed up: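 RKOp27 or RKOp21 cells, 15000/well in DMEM/10% FCS, either arrested by p27Kip1 induced with 10 μM Ponasterone A or proliferating without inducer; compound added after 24 h, 72 h at 37° C. Alamar Blue fluorescence (544/590 nm), viability as % of untreated cells; −log IC50 reported.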
(In general: Resazurin is reduced to fluorescent resorufin, in cell work by metabolically active cells.)

The test system of assay [2] is RKO (RKOp27) human colon adenocarcinoma cells. The experiment in a line: Alamar Blue cell viability assay, anti-proliferative/cytotoxic activity on proliferating RKO subclones. The assay is classed as cell-based. To be noted: RKOp27, 72 h, RKO p27 uninduced (proliferating) cells, value = class bound given in Table A, read-out: −logIC50 RKO p27 uninduced (proliferating) (converted). Summed up:
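RKOp27 subclones (5000 cells/well) were exposed 24 h after seeding to semi-log compound dilutions in DMEM with 10% FCS, in quadruplicate, for 72 h at 37 °C. Viability was read by Alamar Blue fluorescence (544/590 nm) relative to untreated cells (1% DMSO medium). IC50 came from concentration-effect curves and is reported as −log IC50 [mol/l].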

For the molecule `CC(CC(=O)Nc1sc2c(c1C#N)CCC(COC(=O)NC(C)c1ccnn1C)C2)c1ccccc1` (centres unmarked) [Example 318, [1-(2-Methyl-2H-pyrazol-3-yl)-ethyl]-carbamic acid 3-cyano-2-(3-phenyl-butanoylamino)-4,5,6,7-tetrahydro-benzo[b] thiophen-6-ylmethyl ester], the IC50 in assay [1] is no less than 10000 nM; in assay [2] it was no more than 501 nM.
On the same counts, the results for `CC(CC(=O)Nc1sc2c(c1C#N)CCC(COC(=O)NCc1cccn1C)C2)c1ccccc1` (centres unmarked) [Example 319, (1-Methyl-1H-pyrrol-2-ylmethyl)-carbamic acid 3-cyano-2-(3-phenyl-butanoylamino)-4,5,6,7-tetrahydro-benzo[b] thiophen-6-ylmethyl ester] are no less than 50100 nM and no more than 501 nM.
On the same counts, the results for `Cc1nn(C)cc1CNC(=O)OCC1CCc2c(sc(NC(=O)CC(C)c3ccccc3)c2C#N)C1` (centres unmarked) [Example 320, (1,3-Dimethyl-1H-pyrazol-4-ylmethyl)-carbamic acid 3-cyano-2-(3-phenyl-butanoylamino)-4,5,6,7-tetrahydro-benzo[b]thiophen-6-ylmethyl ester] are no less than 10000 nM and no more than 501 nM.
As for `Cc1cc(CNC(=O)OCC2CCc3c(sc(NC(=O)CC(C)c4ccccc4)c3C#N)C2)n(C)n1` (centres unmarked) [Example 321, (2,5-Dimethyl-2H-pyrazol-3-ylmethyl)-carbamic acid 3-cyano-2-(3-phenyl-butanoylamino)-4,5,6,7-tetrahydro-benzo[b] thiophen-6-ylmethyl ester], the IC50 is no less than 50100 nM in assay [1] and no more than 501 nM in assay [2].
As for `CCn1nccc1CNC(=O)OCC1CCc2c(sc(NC(=O)CC(C)c3ccccc3)c2C#N)C1` (centres unmarked) [Example 322, (2-Ethyl-2H-pyrazol-3-ylmethyl)-carbamic acid 3-cyano-2-(3-phenyl-butanoylamino)-4,5,6,7-tetrahydro-benzo[b] thiophen-6-ylmethyl ester], the results for the IC50 in assay [1] and in assay [2] were no less than 50100 nM and no more than 501 nM, respectively.
For `COc1cccc(C(C)CC(=O)Nc2sc3c(c2C#N)CCC(COC(=O)NCc2ccccn2)C3)c1` (centres unmarked) [Example 324, Pyridin-2-ylmethyl-carbamic acid 3-cyano-2-[3-(3-methoxy-phenyl)-butanoylamino]-4,5,6,7-tetrahydro-benzo[b] thiophen-6-ylmethyl ester] the same measures were no less than 50100 nM and 501 to 2000 nM.
On the same counts, the results for `COc1cccc(C(C)CC(=O)Nc2sc3c(c2C#N)CCC(COC(=O)NCc2cccnc2)C3)c1` (centres unmarked) [Example 325, Pyridin-3-ylmethyl-carbamic acid 3-cyano-2-[3-(3-methoxy-phenyl)-butanoylamino]-4,5,6,7-tetrahydro-benzo[b]thiophen-6-ylmethyl ester] are no less than 50100 nM and 501 to 2000 nM.
For `COc1cccc(C(C)CC(=O)Nc2sc3c(c2C#N)CCC(COC(=O)NCc2ccncc2)C3)c1` (centres unmarked) [Example 326, Pyridin-4-ylmethyl-carbamic acid 3-cyano-2-[3-(3-methoxy-phenyl)-butanoylamino]-4,5,6,7-tetrahydro-benzo[b]thiophen-6-ylmethyl ester], the results for the IC50 in assay [1] and in assay [2] were no less than 10000 nM and 501 to 2000 nM, respectively.
For `COc1cccc(C(C)CC(=O)Nc2sc3c(c2C#N)CCC(COC(=O)NCCc2cccnc2)C3)c1` (centres unmarked) [Example 327, (2-Pyridin-3-yl-ethyl)-carbamic acid 3-cyano-2-[3-(3-methoxy-phenyl)-butanoylamino]-4,5,6,7-tetrahydro-benzo[b]thiophen-6-ylmethyl ester] the same measures were no less than 50100 nM and 501 to 2000 nM.
For `COc1cccc(C(C)CC(=O)Nc2sc3c(c2C#N)CCC(COC(=O)NCC2CCOCC2)C3)c1` (centres unmarked) [Example 328, (Tetrahydro-pyran-4-ylmethyl)-carbamic acid 3-cyano-2-[3-(3-methoxy-phenyl)-butanoyl-amino]-4,5,6,7-tetrahydro-benzo[b]thiophen-6-ylmethyl ester] the same measures were no less than 50100 nM and 501 to 2000 nM.

Source of the values: US20110044938A1 (NYCOMED GMBH, priority 2006, published 2011).
